Laboratory results reported in ChEMBL document CHEMBL1201862, “PubChem BioAssay data set” (2004).
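48-hour exposure; five concentrations; linearly interpolated endpoints. GI50: concentration for 50% inhibition of growth.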 The source made the active and inactive calls. Rule as the data show it: active = GI50 up to about 1.1 µM and inactive = higher.

Key:
Assay in all cases: inhibition of tumour cell growth, NCI panel, 48 h
786-0 = system: 786-0
A498 = system: A498
A549 = system: A549
ACHN = system: ACHN
CAKI-1 = system: CAKI-1
CCRF-CEM = system: CCRF-CEM
COLO 205 = system: COLO 205
DU-145 = system: DU-145
EKVX = system: EKVX
HCT-116 = system: HCT-116
HCT-15 = system: HCT-15
HL-60 = system: HL-60
HOP-62 = system: HOP-62
HOP-92 = system: HOP-92
HT-29 = system: HT-29
Hs-578T = system: Hs-578T
K562 = system: K562
KM12 = system: KM12
LOX IMVI = system: LOX IMVI
M14 = system: M14
MCF7 = system: MCF7
MDA-MB-231 = system: MDA-MB-231
MDA-MB-435 = system: MDA-MB-435
MDA-N = system: MDA-N
MOLT-4 = system: MOLT-4
Malme-3M = system: Malme-3M
NCI-H226 = system: NCI-H226
NCI-H23 = system: NCI-H23
NCI-H460 = system: NCI-H460
NCI-H522 = system: NCI-H522
NCI/ADR-RES = system: NCI/ADR-RES
OVCAR-3 = system: OVCAR-3
OVCAR-5 = system: OVCAR-5
OVCAR-8 = system: OVCAR-8
PC-3 = system: PC-3
RPMI-8226 = system: RPMI-8226
RXF 393 = system: RXF 393
SF-268 = system: SF-268
SF-295 = system: SF-295
SF-539 = system: SF-539
SK-MEL-28 = system: SK-MEL-28
SK-MEL-2 = system: SK-MEL-2
SK-MEL-5 = system: SK-MEL-5
SK-OV-3 = system: SK-OV-3
SN12C = system: SN12C
SNB-19 = system: SNB-19
SNB-75 = system: SNB-75
SR = system: SR
SW-620 = system: SW-620
T47D = system: T47D
TK-10 = system: TK-10
UACC-257 = system: UACC-257
UACC-62 = system: UACC-62
UO-31 = system: UO-31

O=C(/C=C\c1ccc(Cl)cc1Cl)c1cccs1
GI50 (786-0): 17.5 µM (inactive)
GI50 (A498): 19.7 µM (inactive)
GI50 (A549): 24.9 µM (inactive)
GI50 (ACHN): 14.7 µM (inactive)
GI50 (CAKI-1): 24.2 µM (inactive)
GI50 (CCRF-CEM): 21.3 µM (inactive)
GI50 (COLO 205): 16.5 µM (inactive)
GI50 (DU-145): 21.3 µM (inactive)
GI50 (EKVX): 16.9 µM (inactive)
GI50 (HCT-116): 9.57 µM (inactive)
GI50 (HCT-15): 14.4 µM
GI50 (HL-60): 37.2 µM (inactive)
GI50 (HOP-62): 24.3 µM (inactive)
GI50 (HOP-92): 26.4 µM (inactive)
GI50 (HT-29): 23.4 µM (inactive)
GI50 (Hs-578T): 24.8 µM (inactive)
GI50 (K562): 21.1 µM (inactive)
GI50 (KM12): 16.3 µM (inactive)
GI50 (LOX IMVI): > 10 µM (inactive)
GI50 (M14): 18.8 µM (inactive)
GI50 (MCF7): 6.89 µM (inactive)
GI50 (MDA-MB-231): 16.7 µM (inactive)
GI50 (MDA-MB-435): 16.6 µM (inactive)
GI50 (MDA-N): 16.6 µM (inactive)
GI50 (MOLT-4): 30.2 µM (inactive)
GI50 (Malme-3M): 21.4 µM (inactive)
GI50 (NCI-H226): 20.7 µM (inactive)
GI50 (NCI-H23): 19.2 µM (inactive)
GI50 (NCI-H460): 23.9 µM (inactive)
GI50 (NCI-H522): 21.2 µM (inactive)
GI50 (NCI/ADR-RES): 30.4 µM (inactive)
GI50 (OVCAR-3): 28.4 µM (inactive)
GI50 (OVCAR-5): 20 µM (inactive)
GI50 (OVCAR-8): 12 µM (inactive)
GI50 (PC-3): 16.4 µM (inactive)
GI50 (RPMI-8226): 3.61 µM (inactive)
GI50 (RXF 393): 24 µM (inactive)
GI50 (SF-268): 23.4 µM (inactive)
GI50 (SF-295): 18.3 µM (inactive)
GI50 (SF-539): 19.8 µM (inactive)
GI50 (SK-MEL-28): 24.5 µM (inactive)
GI50 (SK-MEL-2): 18.9 µM (inactive)
GI50 (SK-MEL-5): 16.3 µM (inactive)
GI50 (SK-OV-3): 26.1 µM (inactive)
GI50 (SN12C): 17.4 µM (inactive)
GI50 (SNB-19): 17 µM (inactive)
GI50 (SNB-75): 25.2 µM (inactive)
GI50 (SR): 5.61 µM (inactive)
GI50 (SW-620): 12.5 µM (inactive)
GI50 (T47D): 21.9 µM (inactive)
GI50 (TK-10): 24.5 µM (inactive)
GI50 (UACC-257): 19.5 µM (inactive)
GI50 (UACC-62): 14.7 µM (inactive)
GI50 (UO-31): 11.9 µM (inactive)
